Test results: ChEMBL document CHEMBL2074295, “Molecular identification of the corticosterone-sensitive extraneuronal catecholamine transporter” (Nat Neurosci, 1998)

T1: Solute carrier family 22 member 3 (Homo sapiens, UniProt O75751)
T1 sequence (O75751 whole entry): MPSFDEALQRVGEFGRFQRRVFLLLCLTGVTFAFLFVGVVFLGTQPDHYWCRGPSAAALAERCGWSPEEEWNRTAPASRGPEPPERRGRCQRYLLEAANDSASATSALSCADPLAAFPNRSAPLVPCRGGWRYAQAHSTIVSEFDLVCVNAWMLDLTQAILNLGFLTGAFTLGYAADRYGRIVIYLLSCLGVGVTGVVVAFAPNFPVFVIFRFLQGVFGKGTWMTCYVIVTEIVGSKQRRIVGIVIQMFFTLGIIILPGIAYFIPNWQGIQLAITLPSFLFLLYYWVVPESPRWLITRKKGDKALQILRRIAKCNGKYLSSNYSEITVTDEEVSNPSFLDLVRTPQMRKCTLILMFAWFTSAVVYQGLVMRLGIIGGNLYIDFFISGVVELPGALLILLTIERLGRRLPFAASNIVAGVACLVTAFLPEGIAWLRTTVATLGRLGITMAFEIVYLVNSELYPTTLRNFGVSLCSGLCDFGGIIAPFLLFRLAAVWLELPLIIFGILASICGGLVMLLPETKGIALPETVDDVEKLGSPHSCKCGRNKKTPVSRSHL

B1: Solute carrier family 22 member 3 (Homo sapiens) (protein)
chain: T1 sequence (O75751 whole entry)

Experiments:
Assay type in all cases: functional, cell-based
[1] = molecular target: T1, Solute carrier family 22 member 3; assay: (§1) TP_TRANSPORTER: uptake in OCT3-expressing HEK293 cells
[2] = molecular target: T1, Solute carrier family 22 member 3; assay: TP_TRANSPORTER: inhibition of MPP+ uptake in OCT3-expressing HEK293 cells
[3] = substrate: NC[C@H](O)c1ccc(O)c(O)c1; assay: as §1

| Molecule | Activity [1] | other results |
| --- | --- | --- |
| C[n+]1ccc(-c2ccccc2)cc1 | substrate [+] |  |
| Nc1ncnc2c1ncn2CCOCP(=O)(O)O [ADEFOVIR] | substrate [+] |  |
| COc1cc2c(c(OC)c1OC)-c1ccc(OC)c(=O)cc1[C@@H](NC(C)=O)CC2 [COLCHICINE] |  | Ki [2]: 120 nM |
| CC(C)N1/C(=C\c2cc[n+](C(C)C)c3ccccc23)C=Cc2ccccc21 [DISPROCYNIUM24] |  | Ki [2]: 15 nM |
| NCCc1c[nH]c2ccc(O)cc12 [SEROTONIN] | substrate [+] |  |
| NCCc1ccc(O)cc1 [TYRAMINE] | substrate [+] |  |
| B1 |  | Km [3]: 510 µM |
